# Data: ChEMBL document CHEMBL4130490, “Discovery of Benzo[g]quinazolin benzenesulfonamide derivatives as dual EGFR/HER2 inhibitors” (Eur J Med Chem, 2017)
# Tests used:
# [1] = system: A549; assay: Cytotoxicity against human A549 cells after 24 hrs by MTT assay; format: functional, cell-based; settings: A549, 24 h
# [2] = system: A549; assay: Induction of apoptosis in human A549 cells assessed as increase in active caspase-3 level by immunoassay relative to control; format: functional
# [3] = biological target: Receptor tyrosine-protein kinase erbB-2 (Homo sapiens, UniProt P04626); assay: Inhibition of recombinant human His-tagged HER2 cytoplasmic domain (676 to 1255 residues) expressed in baculovirus virus expression system after 1 hr by ELISA
# [4] = biological target: Epidermal growth factor receptor (Homo sapiens, UniProt P00533); assay: Inhibition of recombinant human GST-tagged EGFR cytoplasmic domain (668 to 1210 residues) expressed in baculovirus virus expression system after 1 hr by ELISA
# Chain of Epidermal growth factor receptor (P00533 whole entry, the tested form may be a part): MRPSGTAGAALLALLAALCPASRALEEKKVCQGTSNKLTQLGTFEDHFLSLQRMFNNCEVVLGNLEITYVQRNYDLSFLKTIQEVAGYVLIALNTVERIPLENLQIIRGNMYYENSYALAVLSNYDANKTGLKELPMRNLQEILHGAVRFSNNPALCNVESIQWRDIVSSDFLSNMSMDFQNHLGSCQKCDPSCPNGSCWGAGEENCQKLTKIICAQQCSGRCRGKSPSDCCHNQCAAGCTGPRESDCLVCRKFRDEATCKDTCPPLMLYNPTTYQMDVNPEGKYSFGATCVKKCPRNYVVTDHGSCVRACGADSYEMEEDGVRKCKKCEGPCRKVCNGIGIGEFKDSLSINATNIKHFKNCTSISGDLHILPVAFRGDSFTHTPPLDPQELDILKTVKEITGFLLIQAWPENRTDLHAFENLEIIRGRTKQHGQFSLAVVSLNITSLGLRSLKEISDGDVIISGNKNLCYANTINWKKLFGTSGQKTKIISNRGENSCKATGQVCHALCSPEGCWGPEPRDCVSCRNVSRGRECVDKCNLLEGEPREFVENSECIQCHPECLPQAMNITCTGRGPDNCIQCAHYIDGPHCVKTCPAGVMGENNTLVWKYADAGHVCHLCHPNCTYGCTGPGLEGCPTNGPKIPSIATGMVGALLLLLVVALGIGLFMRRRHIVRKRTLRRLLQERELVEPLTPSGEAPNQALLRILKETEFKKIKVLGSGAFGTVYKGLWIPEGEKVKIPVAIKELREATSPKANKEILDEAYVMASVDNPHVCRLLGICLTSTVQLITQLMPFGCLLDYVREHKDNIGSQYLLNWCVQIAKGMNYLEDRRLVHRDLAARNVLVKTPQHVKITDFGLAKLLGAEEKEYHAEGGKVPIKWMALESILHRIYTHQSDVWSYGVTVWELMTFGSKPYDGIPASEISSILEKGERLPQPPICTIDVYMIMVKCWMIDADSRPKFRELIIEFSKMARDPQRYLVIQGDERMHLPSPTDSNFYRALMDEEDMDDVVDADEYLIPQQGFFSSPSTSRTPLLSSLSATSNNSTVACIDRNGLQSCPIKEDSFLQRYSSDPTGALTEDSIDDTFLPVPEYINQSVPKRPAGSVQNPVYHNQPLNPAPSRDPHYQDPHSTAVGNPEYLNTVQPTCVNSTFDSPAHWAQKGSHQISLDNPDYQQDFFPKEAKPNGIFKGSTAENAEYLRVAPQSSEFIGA
# Chain of Receptor tyrosine-protein kinase erbB-2 (P04626 whole entry, the tested form may be a part): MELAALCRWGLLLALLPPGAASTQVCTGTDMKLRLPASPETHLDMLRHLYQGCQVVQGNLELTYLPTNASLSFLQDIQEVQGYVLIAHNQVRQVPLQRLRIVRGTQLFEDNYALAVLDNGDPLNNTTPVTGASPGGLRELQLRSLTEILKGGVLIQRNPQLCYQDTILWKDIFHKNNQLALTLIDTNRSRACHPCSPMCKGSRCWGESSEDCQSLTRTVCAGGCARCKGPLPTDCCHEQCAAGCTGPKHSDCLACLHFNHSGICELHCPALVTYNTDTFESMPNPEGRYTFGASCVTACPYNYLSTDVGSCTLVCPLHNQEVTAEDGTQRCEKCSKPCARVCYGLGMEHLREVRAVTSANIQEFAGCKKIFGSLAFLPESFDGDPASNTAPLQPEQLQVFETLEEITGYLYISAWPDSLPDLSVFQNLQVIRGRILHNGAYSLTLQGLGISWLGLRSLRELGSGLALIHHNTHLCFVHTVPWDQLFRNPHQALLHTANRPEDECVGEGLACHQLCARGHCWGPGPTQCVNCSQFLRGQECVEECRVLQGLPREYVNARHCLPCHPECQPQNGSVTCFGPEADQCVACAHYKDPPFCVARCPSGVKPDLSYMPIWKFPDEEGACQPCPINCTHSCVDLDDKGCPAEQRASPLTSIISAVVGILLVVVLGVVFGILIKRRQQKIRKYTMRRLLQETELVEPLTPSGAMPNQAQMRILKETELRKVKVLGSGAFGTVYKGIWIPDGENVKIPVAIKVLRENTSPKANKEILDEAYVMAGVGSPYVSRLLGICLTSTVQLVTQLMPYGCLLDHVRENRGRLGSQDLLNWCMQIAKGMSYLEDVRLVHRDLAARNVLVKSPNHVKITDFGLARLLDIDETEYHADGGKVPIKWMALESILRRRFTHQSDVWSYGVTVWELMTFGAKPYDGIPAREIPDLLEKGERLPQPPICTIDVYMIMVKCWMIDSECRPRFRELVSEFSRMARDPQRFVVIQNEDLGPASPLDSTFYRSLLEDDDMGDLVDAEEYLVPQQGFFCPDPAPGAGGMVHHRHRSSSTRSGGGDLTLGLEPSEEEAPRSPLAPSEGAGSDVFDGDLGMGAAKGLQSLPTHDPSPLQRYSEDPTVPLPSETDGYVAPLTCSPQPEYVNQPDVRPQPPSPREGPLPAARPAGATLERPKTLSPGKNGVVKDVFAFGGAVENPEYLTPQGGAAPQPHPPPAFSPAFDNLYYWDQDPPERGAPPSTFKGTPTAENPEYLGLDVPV
IC50 [3] [nM],IC50 [4] [nM],SMILES,IC50 [1] [nM],fold change (FC) [2]
–,–,NS(=O)(=O)c1ccc(-n2c(SCC(=O)Nc3ccncc3)nc3cc4ccccc4cc3c2=O)cc1,500,–
–,–,NS(=O)(=O)c1ccc(-n2c(SCC(=O)Nc3ccc(I)cc3)nc3cc4ccccc4cc3c2=O)cc1,2530,–
–,–,NS(=O)(=O)c1ccc(-n2c(SCC(=O)Nc3ccccn3)nc3cc4ccccc4cc3c2=O)cc1,3520,–
–,–,NS(=O)(=O)c1ccc(-n2c(SCC(=O)Nc3c(Cl)cc(Cl)cc3Cl)nc3cc4ccccc4cc3c2=O)cc1,1070,–
760,–,NS(=O)(=O)c1ccc(-n2c(SCC(=O)Nc3cc(Cl)c(Cl)cc3Cl)nc3cc4ccccc4cc3c2=O)cc1,290,6.28
–,–,Cc1cccc([N+](=O)[O-])c1NC(=O)CSc1nc2cc3ccccc3cc2c(=O)n1-c1ccc(S(N)(=O)=O)cc1,1480,–
390,110,NS(=O)(=O)c1ccc(-n2c(SCC(=O)Nc3cnc4ccccc4c3)nc3cc4ccccc4cc3c2=O)cc1,120,8.49
–,–,NS(=O)(=O)c1ccc(-n2c(SCC(=O)Nc3ccc(Br)cc3Br)nc3cc4ccccc4cc3c2=O)cc1,1500,–
–,–,NS(=O)(=O)c1ccc(-n2c(SCC(=O)Nc3ccc(Cl)cn3)nc3cc4ccccc4cc3c2=O)cc1,1020,–
–,–,NS(=O)(=O)c1ccc(-n2c(SCC(=O)Nc3ccc(Br)cc3)nc3cc4ccccc4cc3c2=O)cc1,8700,–
–,–,NS(=O)(=O)c1ccc(-n2c(SCC(=O)NCc3ccc4c(c3)OCO4)nc3cc4ccccc4cc3c2=O)cc1,1360,–
–,–,NS(=O)(=O)c1ccc(-n2c(SCC(=O)Nc3cccnc3)nc3cc4ccccc4cc3c2=O)cc1,490,–
–,–,NS(=O)(=O)c1ccc(-n2c(SCC(=O)Nc3cccnc3Cl)nc3cc4ccccc4cc3c2=O)cc1,670,–
–,–,NS(=O)(=O)c1ccc(-n2c(SCC(=O)Nc3ccccc3Cl)nc3cc4ccccc4cc3c2=O)cc1,1160,–
300,60,NS(=O)(=O)c1ccc(-n2c(SCC(=O)Nc3ccc([N+](=O)[O-])cc3[N+](=O)[O-])nc3cc4ccccc4cc3c2=O)cc1,280,9.35
